From ChEMBL document CHEMBL4725270, “Chloroquine fumardiamides as novel quorum sensing inhibitors” (2020)
The source made the active and inactive calls. The calls are words filed in the database; no cut-off is given here.

Legend:
[1] = system: Chromobacterium violaceum; test: Inhibition of quorum sensing system in Chromobacterium violaceum ATCC 31532 assessed as reduction in violacein production at 400 uM relative to control
[2] = system: Chromobacterium violaceum; test: Bactericidal activity against Chromobacterium violaceum ATCC 31532 at 400 uM by resazurin dye based assay relative to control; format: functional
[3] = system: Chromobacterium violaceum; test: Inhibition of quorum sensing in violacein-negative Chromobacterium violaceum CV026 mini-Tn5 mutant assessed as quorum quenching by measuring violacein production at 400 uM in presence of C6-HSL relative to control; parameters: scale not given: the % may be the effect or the level left
[4] = system: Chromobacterium violaceum; test: Inhibition of quorum sensing in Chromobacterium violaceum ATCC 31532 assessed as reduction in violacein production at 400 uM relative to control
[5] = system: Chromobacterium violaceum; test: Bactericidal activity against violacein-negative Chromobacterium violaceum CV026 mini-Tn5 mutant at 400 uM by resazurin dye based assay relative to control; format: functional
[6] = system: Chromobacterium violaceum; test: Bactericidal activity against Chromobacterium violaceum ATCC 31532 assessed as reduction in cell viability at 400 uM by resazurin dye based assay relative to control
[7] = system: Chromobacterium violaceum; test: Inhibition of quorum sensing in Chromobacterium violaceum ATCC 31532 assessed as reduction in violacein production at 40 uM relative to control
[8] = system: Chromobacterium violaceum; test: Inhibition of quorum sensing in violacein-negative Chromobacterium violaceum CV026 mini-Tn5 mutant assessed as quorum quenching by measuring violacein production at 40 uM in presence of C6-HSL relative to control; parameters: scale not given: the % may be the effect or the level left
[9] = system: Chromobacterium violaceum; test: Inhibition of quorum sensing in Chromobacterium violaceum ATCC 31532 assessed as quorum quenching by measuring violacein production at 40 uM in presence of C6-HSL

Row | SMILES | inhibition [1] | Activity [2] | Activity [3] | inhibition [4] [%] | Activity [5] | Activity [6] [%] | inhibition [7] | Activity [8] [%] | Activity [9]
1 | CC(C)(C)OC(=O)NCCNC(=O)/C=C/C(=O)NCCCCNc1ccnc2cc(Cl)ccc12 | 23% | 10.7% | – | – | – | – | – | – | –
2 | COc1cc(NC(C)CCCNC(=O)/C=C/C(=O)Nc2cccc(Cl)c2)c2ncccc2c1 (stereo unspecified) | inactive | 17.9% | – | – | – | – | – | – | –
3 | Nc1ccc(NC(=O)/C=C/C(=O)NCCCCNc2ccnc3cc(Cl)ccc23)cc1 | 4.7% | 17.5% | – | – | – | – | – | – | –
4 | O=C(/C=C/C(=O)Nc1cccc(Cl)c1)NCCCCNc1ccnc2cc(Cl)ccc12 | 75.3% | 45.8% | inactive | 75 | inactive | 27 | – | – | –
5 | O=C(/C=C/C(=O)Nc1cccc(F)c1)NCCCCNc1cc(C(F)(F)F)nc2c(C(F)(F)F)cccc12 | 16.9% | inactive | – | – | – | – | – | – | –
6 | COc1cc(NC(C)CCCNC(=O)/C=C/C(=O)Nc2ccc(C(F)(F)F)cc2)c2ncccc2c1 (stereo unspecified) | inactive | 31.2% | – | – | – | – | – | – | –
7 | CCN(CC)CCCC(C)Nc1ccnc2cc(Cl)ccc12 (stereo unspecified) [CHLOROQUINE] | 13.2% | 10.1% | – | – | – | – | – | – | –
8 | O=C(/C=C/C(=O)NC1CCNCC1)NCCCCNc1ccnc2cc(Cl)ccc12 | 45.9% | 6.5% | 61.6% | – | 10.3% | – | 5.4% | 42.8 | –
9 | NCCNC(=O)/C=C/C(=O)NCCCCNc1ccnc2cc(Cl)ccc12 | 46.3% | 12.1% | 53.3% | – | 10.3% | – | inactive | 52.5 | –
10 | O=C(/C=C/C(=O)Nc1cccc(C(F)(F)F)c1)NCCCCNc1cc(C(F)(F)F)nc2c(C(F)(F)F)cccc12 | 22.3% | 13.8% | – | – | – | – | – | – | –
11 | O=C(/C=C/C(=O)Nc1ccc(C(F)(F)F)cc1)NCCCCNc1cc(C(F)(F)F)nc2c(C(F)(F)F)cccc12 | inactive | inactive | – | – | – | – | – | – | –
12 | O=C(/C=C/C(=O)Nc1cccc(F)c1)NCCCCNc1ccnc2cc(Cl)ccc12 | 79.4% | 27.8% | inactive | 75 | inactive | 27 | – | – | inactive
13 | O=c1c(O)c(-c2ccc(O)c(O)c2)oc2cc(O)cc(O)c12 [QUERCETIN] | 55.8% | 14.7% | 66.8% | – | 17.1% | – | – | – | –
14 | COc1cc(NC(C)CCCN)c2ncccc2c1 (stereo unspecified) | inactive | inactive | inactive | – | inactive | – | – | – | –
15 | CC[C@H]1OC(=O)[C@H](C)[C@@H](O[C@H]2C[C@@](C)(OC)[C@@H](O)[C@H](C)O2)[C@H](C)[C@@H](O[C@@H]2O[C@H](C)C[C@H](N(C)C)[C@H]2O)[C@](C)(O)C[C@@H](C)CN(C)[C@H](C)[C@@H](O)[C@]1(C)O [AZITHROMYCIN] | 90.6% | 85.6% | 86.3% | 90.6 | 67.2% | – | – | 86.3 | –
16 | COc1cc(NC(C)CCCNC(=O)/C=C/C(=O)Nc2ccc(F)cc2)c2ncccc2c1 (stereo unspecified) | inactive | 24.2% | – | – | – | – | – | – | –
17 | O=C(/C=C/C(=O)Nc1ccc(Cl)cc1)NCCCCNc1cc(C(F)(F)F)nc2c(C(F)(F)F)cccc12 | 29.9% | inactive | – | – | – | – | – | – | –
18 | COc1cc(NC(C)CCCNC(=O)/C=C/C(=O)Nc2ccc(Cl)cc2)c2ncccc2c1 (stereo unspecified) | inactive | inactive | – | – | – | – | – | – | –
19 | CC(C)(C)OC(=O)NC1CCN(C(=O)/C=C/C(=O)NCCCCNc2ccnc3cc(Cl)ccc23)CC1 | 9.1% | 44.6% | – | – | – | – | – | – | –
20 | O=C(/C=C/C(=O)Nc1ccc(F)cc1)NCCCCNc1cc(C(F)(F)F)nc2c(C(F)(F)F)cccc12 | 29.1% | inactive | – | – | – | – | – | – | –
21 | O=C(/C=C/C(=O)Nc1ccc(C(F)(F)F)cc1)NCCCCNc1ccnc2cc(Cl)ccc12 | 85.7% | 27.7% | inactive | – | inactive | – | – | – | inactive
22 | O=C(/C=C/C(=O)Nc1ccc(F)cc1)NCCCCNc1ccnc2cc(Cl)ccc12 | 87.9% | 39.7% | inactive | 75 | inactive | – | – | – | inactive
23 | CC(C)(C)OC(=O)Nc1ccc(NC(=O)/C=C/C(=O)NCCCCNc2ccnc3cc(Cl)ccc23)cc1 | inactive | 43.7% | – | – | – | – | – | – | –
24 | NC1CCN(C(=O)/C=C/C(=O)NCCCCNc2ccnc3cc(Cl)ccc23)CC1 | 47.2% | 16.2% | 62.6% | – | 13.4% | – | 7% | 39.9 | –
25 | O=C(/C=C/C(=O)Nc1ccc(Cl)cc1)NCCCCNc1ccnc2cc(Cl)ccc12 | 85% | 56.9% | inactive | – | inactive | 27 | – | – | inactive
26 | O=C(/C=C/C(=O)Nc1cccc(C(F)(F)F)c1)NCCCCNc1ccnc2cc(Cl)ccc12 | inactive | inactive | – | – | – | – | – | – | –
27 | CC(C)(C)OC(=O)N1CCC(NC(=O)/C=C/C(=O)NCCCCNc2ccnc3cc(Cl)ccc23)CC1 | inactive | 8.3% | – | – | – | – | – | – | –
28 | O=C(/C=C/C(=O)Nc1cccc(Cl)c1)NCCCCNc1cc(C(F)(F)F)nc2c(C(F)(F)F)cccc12 | 22.3% | 22.3% | – | – | – | – | – | – | –
29 | COc1cc(NC(C)CCCNC(=O)/C=C/C(=O)Nc2cccc(F)c2)c2ncccc2c1 (stereo unspecified) | inactive | inactive | – | – | – | – | – | – | –
30 | COc1cc(NC(C)CCCNC(=O)/C=C/C(=O)Nc2cccc(C(F)(F)F)c2)c2ncccc2c1 (stereo unspecified) | inactive | 16.4% | – | – | – | – | – | – | inactive
